Laboratory results as given in patent EP1870419A2, “Modulators of beta-amyloid peptide aggregation comprising D-amino acids” (Praecis Pharmaceuticals Incorporated, priority 1999, dated 2000).

What was measured:
[1] = target: T1, Aβ1-40 (Homo sapiens, UniProt P05067); assay: Nucleation assay (turbidity at 405 nm, change in lag time); assay type: biochemical; settings: for Nucleation assay data 0.3 µM / Nucleation assay data 1 µM / Nucleation assay data 3 µM: Table II; for Nucleation assay Δlag 1.25 µM / Nucleation assay Δlag […] / Nucleation assay Δlag 5 µM: Table I
T1 construct: first Aβ1-40 peptide is dissolved in HFIP
T1 sequence (P05067 672-711): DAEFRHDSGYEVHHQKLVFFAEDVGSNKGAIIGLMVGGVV
Source text: The nucleation assay is employed to determine the ability of test compounds to alter (e.g. inhibit) the early events in formation of β-AP fibers from monomeric β-AP. Characteristic of a nucleated polymerization mechanism, a lag time is observed prior to nucleation, after which the peptide rapidly forms fibers as reflected in a linear rise in turbidity. The time delay before polymerization of β-AP monomer can be quantified as well as the extent of formation of insoluble fiber by light scattering (turbidity). Polymerization reaches equilibrium when the maximum turbidity reaches a plateau. The turbidity of a solution of natural β-AP in the absence or presence of various concentrations of a β-amyloid modulator compound is determined by measuring the apparent absorbance of the solution at 405nm (A405 nm) over time. The threshold of sensitivity for the measurement of turbidity is in the range of 15-20 µM β-AP. […] This assay can be performed using stirring or shaking to accelerate polymerization, thereby increasing the speed of the assay. Moreover the assay can be adapted to a 96-well plate format to screen multiple compounds.
To perform the nucleation assay, first Aβ1-40 peptide is dissolved in HFIP (1,1,1,3,3,3-Hexafluoro-2-propanol; Aldrich 10,522-8) at a concentration of 2 mg peptide/ml and incubated at room temperature for 30 min. HFIP-solubilized peptide is sonicated in a waterbath sonicator for 5 min at highest setting, then evaporated to dryness under a stream of argon. The peptide film is resuspended in anhydrous dimethylsulfoxide (DMSO) at a concentration of 6.9 mg/ml (25x concentration), sonicated for 5 min as before, then filtered through a 0.2 micron nylon syringe filter (VWR cat. No. 28196-050). Test compounds are dissolved in DMSO at a 100x concentration. Four volumes of 25x Aβ1-40 peptide in DMSO are combined with one volume of test compound in DMSO in a glass vial, and mixed to produce a 1:1 molar ratio of Aβ peptide to test compound. For different molar ratios, test compounds are diluted with DMSO prior to addition to Aβ1-40, in order to keep the final DMSO and Aβ1-40 concentrations constant. […] Ten microliters of the mixture is then added to the bottom of a well of a Coming Costar ultra low binding 96-well plate (Corning Costar, Cambridge MA; cat. No. 2500). Ninety microliters of water is added to the well, the plate is shaken on a rotary shaken at a constant speed at room temperature for 30 seconds, an additional 100 µl of 2x PTL buffer (20 mM NaH2PO4, 300 mM NaCl, pH 7.4) is added to the well, the plate is reshaken for 30 seconds and a baseline (t=0) turbidity reading is taken by measuring the apparent absorbance at 405 nm using a Bio-Rad Model 450 Microplate Reader. The plate is then returned to the shaker and shaken continuously for 5 hours. Turbidity readings are taken at 15 minute intervals.
β-amyloid aggregation in the absence of any modulators results in enhanced turbidity of the natural β-AP solution (i.e., an increase in the apparent absorbance at 405 nm over time).

[2] = system: PC12 cells; assay: Neurotoxicity assay (MTT viability), PC-12 cells; assay type: cell-based, rat; settings: aged (5 day or 8 day) aggregates, 48 hours, read-out: EC50 for toxicity
Source text: (§1) The neurotoxicity of natural β-amyloid peptide aggregates, in either the presence or absence of a β-amyloid modulator, can be tested in a cell-based assay using either a rat or human neuronally-derived cell line (PC-12 cells or NT-2 cells, respectively) and the viability indicator […]-tetrazolium bromide (MTT). (See e.g., Shearman, M.S. et al. (1994) Proc. Natl. Acad. Sci. USA 91:1470-1474; Hansen, M.B. et al. (1989) J Immun. Methods 119:203-210 for a description of similar cell-based viability assays). PC-12 is a rat adrenal pheochromocytoma cell line and is available from the American Type Culture Collection, Rockville, MD (ATCC CRL 1721). MTT (commercially available from Sigma Chemical Co.) is a chromogenic substrate that is converted from yellow to blue in viable cells, which can be detected spectrophotometrically. […]

[3] = system: NT2 cells; assay: Neurotoxicity assay (MTT viability), NT-2 cells; assay type: cell-based, human; settings: aged (5 day or 8 day) aggregates, 48 hours, read-out: EC50 for toxicity
Source text: as §1

[4] = rows marked *: measured at 0.6 µM of compound
[5] = rows marked *: measured at 1.25 µM of compound
[6] = rows marked *: measured at […] of compound
[7] = 0.3 µM test compound, 5 µM Aβ1-40, ΔLag, ratio to control lag time
[8] = 1 µM test compound, 5 µM Aβ1-40, ΔLag, ratio to control lag time
[9] = 3 µM test compound, 5 µM Aβ1-40, ΔLag, ratio to control lag time
[10] = 1.25 µM test compound, 5 µM Aβ1-40, ratio to control lag time
[11] = 5 µM test compound, 5 µM Aβ1-40, ratio of lag time with compound to lag time of control
[12] = […] test compound, 5 µM Aβ1-40, ratio to control lag time

Substance	Nucleation assay Δlag 1.25 µM [1, 10]	Nucleation assay Δlag 5 µM [1, 11]	Nucleation assay Δlag […] [1, 12]	further results
2 TFA·H-lvf-NH-NH-fvl-H [PPI-1125]				Nucleation assay data 0.3 µM [1, 4]: 2.0; Nucleation assay data 1 µM [1, 5]: >2.5; Nucleation assay data 3 µM [1, 6]: >2.5
2TFA·H-(lfkvl)-NH2 [PPI-1321]				Nucleation assay data 0.3 µM [1, 7]: <1; Nucleation assay data 1 µM [1, 8]: <1; Nucleation assay data 3 µM [1, 9]: <1
TFA·H-(Glvffl)-NH2 [PPI-1013]				Nucleation assay Δlag 1.25 µM ([1]; rows marked #: measured at 0.6 µM of compound): 2; Nucleation assay Δlag […] ([1]; rows marked #: measured at 1.25 µM of compound): >3; Nucleation assay Δlag 5 µM ([1]; rows marked #: measured at […] of compound): 2
TFA·H-(lf-D-Cha-vl)-NH2 [PPI-1318]				Nucleation assay data 0.3 µM [1, 7]: 1; Nucleation assay data 1 µM [1, 8]: 2; Nucleation assay data 3 µM [1, 9]: >5
TFA·H-(lf-[F5]f-vl)-NH2 [PPI-1320]				Nucleation assay data 0.3 µM [1, 7]: 1; Nucleation assay data 1 µM [1, 8]: 3; Nucleation assay data 3 µM [1, 9]: >5
TFA·H-(lf-[p-F]f-vl)-NH2 [PPI-1319]				Nucleation assay data 0.3 µM [1, 7]: 1; Nucleation assay data 1 µM [1, 8]: >5; Nucleation assay data 3 µM [1, 9]: >5
TFA·H-(lvffa)-dimethylamide [PPI-993]	1	1	1	
TFA·H-(lvffa)-isopropylamide [PPI-992]	1	3	1	
TFA·N,N-diethyl-(Gaffvl)-NH2 [PPI-1005]	1	3	3	
TFA·N,N-diethyl-(affvl)-NH, [PPI-1006]	1	1	1	
TFA·N,N-dimethyl-(Gaffvl)-NH2 [PPI-803]	<1	<1	<1	
TFA·N,N-dimethyl-(affvl)-NH2 [PPI-913]	1	1	1	
TFA·N-ethyl-(Gaffvl)-NH2 [PPI-969]	3	>5	>5	
TFA·N-isopropyl-(Gaffvl)-NH2 [PPI-970]	1	>5	>5	
TFA·N-methyl-(Gaffvl)-NH2 [PPI-968]	2	>5	>5	
TFA•N-methyl-(lvffl)-NH2 [PPI-1019]				Nucleation assay data 0.3 µM [1, 4]: 2.0; Nucleation assay data 1 µM [1, 5]: >2.5; Nucleation assay data 3 µM [1, 6]: >2.5
aged Aβ1-40 aggregates: Aβ1-40 peptide solution incubated at 37 °C for eight days to allow fibrils to form				EC50 [2]: 1000 to 2000 nM; EC50 [3]: 1000 to 2000 nM
